Experimental data taken from patent US4299838A, “Tryptophan derivatives having an increased effect on the central nervous system” (priority 1974, dated 1981).

Assays:
[1] = Solubility and hygroscopicity; assay type: physicochemical
[2] = Acute toxicity (LD 50) in the mouse; assay type: in vivo; settings: mouse, in vivo, ip, intraperitoneal, mice
[3] = Acute toxicity (LD 50) in the mouse; assay type: in vivo; settings: mouse, in vivo, po
From the text: (§1) The oral LD-50 is 16.50 g/kg for DL and 18.25 g/kg for L(+).

mice [4] = experiment: Acute toxicity (LD 50) in the mouse; assay type: in vivo; settings: for LD50: intraperitoneal, mice; for LD-50: oral, mouse
[5] = Pharmacological study, overall comparison; assay type: in vivo; settings: for pharmacological properties: in vivo
depression = experiment: Clinical tests in depression; assay type: in vivo; settings: human
From the text: (§2) The importance of the compounds according to the invention was confirmed by clinical tests.

[6] = test system: amphetamine hyperactivity; experiment: Potentiation of amphetamine hyperactivity (actography); assay type: in vivo, mouse
From the text: (f) Potentiation of amphetamine hyperactivity.

[7] = test system: hyperactivity due to the association of amphetamine and chlorodiazepoxide; experiment: Inhibition of hyperactivity due to the association of amphetamine and chlorodiazepoxide (actography); assay type: in vivo, mouse; settings: 500 and 1000 mg/kg i.p., 1 hour and 3 hours before (+) amphetamine sulphate (5 mg/kg) and chlorodiazepoxide (25 or 50 mg/kg)
Experimental: (b) Inhibition of hyperactivity due to the association of amphetamine and chlorodiazepoxide;
Simultaneous intraperitoneal administration of (+) amphetamine sulphate (5 mg/kg) and chlorodiazepoxide (25 or 50 mg/kg) to mice produced hyperactivity which was measured by the actography method, wherein the mice are placed in pairs in three suspended cages and their movements are recorded.

exploratory activity = experiment: Exploratory activity in the perforated board test; assay type: in vivo, mouse; settings: mice
From the text: (c) The reduction of exploratory activity in the `perforated board` test (Boissiet and Simon-Arch-Int. Pharmacodyn. 1964, 147, 3-4).

[8] = test system: manic-depressive psychoses; experiment: Clinical tests in manic-depressive psychoses; assay type: in vivo, human
Experimental: as §2
Lithium N-acetyl tryptophanate was used to treat manic-depressive psychoses.
A person was treated for a manic-depressive psychosis for 6 years. Relapses normally occurred in spring. They were not prevented either by tricyclic drugs or by IMAO substances. Treatment with lithium carbonate produced oligo-menorrhoea, although the patient normally had regular periods.

reserpine ptosis = experiment: Reserpine anti-ptosis effect; assay type: in vivo, mouse
Experimental: (d) A reserpine anti-ptosis effect. Increasing doses of the test product were subcutaneously administered to male mice, 30 minutes before intraperitoneal injection of reserpine. The ptosis was measured every half-hour for 5 hours by the method of Rubin et Coll. (observation of the occlusion of the lids of each eye). The percentage protection against ptosis was calculated, compared with controls. Lithium acetyl tryptothanate reduced ptosis produced by reserpine, to an extent which increased up to a dose of 800 mg/kg (45% reduction).

rat = experiment: Hypothermic effect on the rat (rectal temperature); assay type: in vivo; settings: 1 g/kg intraperitoneal
From the text: (a) A hypothermic effect on the rat.

mice [9] = experiment: Acute toxicity (LD 50) in the mouse; assay type: in vivo
From the text: as §1

[10] = test system: analgesia produced by morphine; experiment: Heating plate test (analgesia produced by morphine); assay type: in vivo
[11] = Acute toxicity (LD-50) in the rat; settings: in vivo
From the text: as §1

[12] = test system: pentobarbitone sleeping time; experiment: Pentobarbitone sleeping time; assay type: in vivo; settings: mouse, 35 mg/kg pentobarbitone 5 minutes before sub-cutaneous product
gastric ulcers [13] = experiment: Anti-ulcer effect, stress-ulcer method of Rossi et Coll.; assay type: in vivo, mouse; settings: for DE-50 as fraction of the LD-50 / ED50: stress-ulcer method; for ED50: mouse, read-out: DE-50 (anti-ulcer dose 50)
Experimental: (§3) Mg acetyl tryptophanate dissolved in twice-distilled water was administered 48 hours before, 24 hours before and at the moment when the mouse was put under constraint, or 24 hours before and 1 hour before the ligature of the pylorus.
(§4) The DE-50 (anti-ulcer dose 50) of orally-administered Mg acetyl tryptophanate, measured by the stress-ulcer method, was 1700 mg/kg. The DE-50 of intraperitoneally administered Mg acetyl tryptophanate was 230 mg/kg, measured by the stress-ulcer method (i.e. one-tenth of the LD-50) compared with 16 mg/kg (33/100 of the LD-50) for prifinium bromide; measured by the Shay method, the DE-50 was 340 mg/kg (14/100 of the LD-50) for Mg acetyl tryptophanate, compared with 25 mg/kg (52/100 of the LD-50) for prifinium bromide under the same conditions.

gastric ulcers [14] = experiment: Anti-ulcer effect, Shay method (ligature of the pylorus); assay type: in vivo, mouse; settings: for ED50: mouse, read-out: DE-50 (anti-ulcer dose 50)
Experimental: as §3, §4

In the case of `CC(=O)NC(Cc1c[nH]c2ccccc12)C(=O)O` (racemic) [Lithium N-acetyl tryptophanate (DL), Li N-acetyl tryptophan (DL)], the solubility in water [1] is reported as “very soluble”, the LD50 [2] is reported as 3400 mg/kg and the LD50 [3] is reported as 8700 mg/kg.
For `CC(=O)NC(Cc1c[nH]c2ccccc12)C(=O)O` (racemic) [Magnesium N-acetyl tryptophanate (DL), magnesium N-acetyl tryptophanate (DL)], the hygroscopicity [1] was “very hygroscopic”, the “LD50” value (mice [4]) was 2800 mg/kg and the LD50 [3] was 16500 mg/kg.
In the case of `CC(=O)NC(Cc1c[nH]c2ccccc12)C(=O)O` (racemic) [Monoethanolamine N-acetyl tryptophanate, monoethanolamine N-acetyl tryptophanate (DL)], the “solubility in chlorine and hydrocarbon derivatives” value ([1]; chlorine and hydrocarbon derivatives) is reported as “insoluble”, the solubility in water [1] is reported as “fairly soluble” and the pharmacological properties [5] is reported as “very similar to those of magnesium N-acetyl tryptophanate”. For the same molecule, the “effect on sleep, sthenic action and headaches” value (shortened to “effect on sleep”) (depression) was “producing normal sleep, accompanied by a daily sthenic action and the control of refractory headaches”, the “use in the treatment of depression” value (depression) was “of use in the treatment of depression” and the LD-50 (mice [4]) was “above 18 g/kg”.
For `CC(=O)NC(Cc1c[nH]c2ccccc12)C(=O)O` (racemic) [Morpholine N-acetyl tryptophanate, morpholine N-acetyl tryptophanate], the “solubility in chlorinated solvents” value ([1]; chlorinated solvents) was “slightly soluble”, the solubility in water [1] was “very soluble” and the pharmacological properties [5] was “very similar to those of magnesium N-acetyl tryptophanate”. For the same molecule, the “effect on sleep” value (depression) was “producing normal sleep, accompanied by a daily sthenic action and the control of refractory headaches”, the “use in the treatment of depression” value (depression) was “of use in the treatment of depression” and the LD-50 (mice [4]) was 16000 mg/kg.
For `C[C@H](N)Cc1ccccc1` [Dexamphetamine sulphate, dexamphetamine sulphate, reference compound], the “excitation, dexamphetamine sulphate alone” value ([6]; 5 mg/kg intraperitoneal, mouse) was “did not produce very marked excitation”.
For `CC(=O)N[C@@H](Cc1c[nH]c2ccccc12)C(=O)O` [Lithium N-acetyl tryptophanate L(+), Lithium N-acetyl tryptophanate in the L(+) form], the “solubility in chlorinated and aromatic solvents” value ([1]; chlorinated and aromatic solvents) was “very slightly soluble”, the “solubility in ethyl alcohol” value ([1]; ethyl alcohol) was “soluble” and the solubility in water [1] was “soluble”. For the same molecule, the LD50 [2] was 3250 mg/kg and the LD50 [3] was 10500 mg/kg.
For `CC(=O)NC(Cc1c[nH]c2ccccc12)C(=O)O` (stereo not drawn) [Lithium N-acetyl tryptophanate, lithium N-acetyl tryptophanate], the reduction in hyperactivity [7] was “very marked reduction in hyperactivity”, the mobility (exploratory activity; 1000 mg/kg intraperitoneal) was “very marked increase in mobility” and the exploratory activity (exploratory activity; 1500 mg/kg intraperitoneal) was “significant reduction in exploratory activity”. The tolerance by patients ([8]; human, in vivo) was “tolerated by the patients better than lithium carbonate”, the prevention of relapses ([8]; manic-depressive psychoses) was “appeared to prevent relapses into cyclothymia” and the “excitation with 5 mg/kg dexamphetamine sulphate plus product (actography)” value ([6]; 500 mg/kg with 5 mg/kg i.p. dexamphetamine sulphate, mice) was “to a considerably greater extent than with dexamphetamine sulphate alone”. For the same molecule, the “reduction of ptosis produced by reserpine” value (reserpine ptosis; 800 mg/kg subcutaneous, 30 minutes before i.p. reserpine, male mice) was 45%, the “duration of progressive reduction of rectal temperature after injection” value (rat) was 110 min and the “temperature of the rectum” value (rat) was “progressively reduces the temperature of the rectum”. For the same molecule, the toxicity in words (mice [9]; mouse, in vivo) was “only slightly toxic”, the “oral toxicity in words” value (mice [9]; oral) was “low” and the “effect on analgesia produced by morphine” value [10] was “did not affect analgesia produced by morphine”.
In the case of `O=C(O)O` [Lithium carbonate, lithium carbonate], the lithaemia ([8]; observation No. 1) is reported as at most 1 meq, the “side effect on menstruation” value ([8]; observation No. 1) is reported as “oligo-menorrhoea” and the “side effects during treatment” value ([8]; observation No. 1) is reported as “nausea and attacks of vomiting”.
For `CC(=O)N[C@@H](Cc1c[nH]c2ccccc12)C(=O)O` [Magnesium N-acetyl tryptophanate L(+), L(+) magnesium N-acetyl tryptophanate], the solubility in water [1] was “very soluble”, the “LD50” value (mice [4]) was 2300 mg/kg and the LD50 [3] was 18200 mg/kg.
For `CC(=O)NC(Cc1c[nH]c2ccccc12)C(=O)O` (stereo not drawn) [Magnesium N-acetyl tryptophanate, magnesium N-acetyl tryptophanate], the LD50 ([11]; ip, intraperitoneal) was 1350 mg/kg, the LD50 ([11]; oral) was over 8000 mg/kg and the “action compared with lithium acetyl tryptophanate” value ([5]; measured by the same tests) was “slower but more prolonged”. The average sleeping time [12] was “increased the average sleeping time to an extent proportional to the dose”, the “anti-ulcer effect compared with prifinium bromide” value (gastric ulcers [13]; both ulcer methods) was “slightly lower anti-ulcer effect than prifinium bromide” and the “safety in therapy compared with prifinium bromide” value (gastric ulcers [13]; both ulcer methods) was “safer in therapy”. For the same molecule, the “DE-50 as fraction of the LD-50” value (gastric ulcers [13]; intraperitoneal) was “one-tenth”, the ED50 (gastric ulcers [13]; ip, intraperitoneal) was 230 mg/kg and the ED50 (gastric ulcers [13]; oral) was 1700 mg/kg. The “effect on sleep” value (depression) was “producing normal sleep, accompanied by a daily sthenic action and the control of refractory headaches”, the “use in the treatment of depression” value (depression) was “of use in the treatment of depression” and the “reserpine anti-ptosis effect in words” value (reserpine ptosis; mouse, in vivo) was “only a very slight reserpine anti-ptosis effect”. For the same molecule, the “DE-50 as fraction of the LD-50” value (gastric ulcers [14]) was 14/100 and the ED50 (gastric ulcers [14]) was 340 mg/kg.
For `CC[N+]1(CC)CCC(=C(c2ccccc2)c2ccccc2)C1C` (stereo not drawn) [Prifinium bromide, prifinium bromide, reference compound], the “DE-50 as fraction of the LD-50” value (gastric ulcers [13]; intraperitoneal) was 33/100, the ED50 (gastric ulcers [13]; ip, intraperitoneal) was 16 mg/kg and the “DE-50 as fraction of the LD-50” value (gastric ulcers [14]) was 52/100. The ED50 (gastric ulcers [14]) was 25 mg/kg.
